Legend:
Test in all cases: biochemical
Design in all cases: in vitro kinase selectivity panel, protein and lipid kinases, single concentration, ATP at Km
Details in all cases: ATP at Km
[1] = target: JAK2(h) (Homo sapiens, UniProt O60674)
How it was run: (§1)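 Single-point screen against a protein and lipid kinase panel: inhibitor at 1 μM. ATP concentration for every kinase equivalent to its Km.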

[2] = target: Flt1(h) (Homo sapiens, UniProt P17948)
How it was run: as §1

[3] = target: T1, PDGFRα(h) (Homo sapiens, UniProt P16234)
T1 construct: gene PDGFRA
How it was run: as §1

[4] = target: T2, CK1δ(h) (Homo sapiens, UniProt P48730)
T2 construct: gene CSNK1D
How it was run: as §1

[5] = target: FGFR4(h) (Homo sapiens, UniProt P22455)
How it was run: as §1

[6] = target: T3, PKCα(h) (Homo sapiens, UniProt P17252)
T3 construct: gene PRKCA
How it was run: as §1

[7] = target: Axl(h) (Homo sapiens, UniProt P30530)
How it was run: as §1

[8] = target: Met(h) (Homo sapiens, UniProt P08581)
How it was run: as §1

[9] = target: HIPK1(h) (Homo sapiens, UniProt Q86Z02)
How it was run: as §1

[10] = target: PIP4K2A (Homo sapiens, UniProt P48426)
How it was run: as §1

[11] = target: T4, cKit(V560G)(h) (Homo sapiens, UniProt P10721, V560G)
T4 construct: gene KIT
How it was run: as §1

[12] = target: Hck(h) (Homo sapiens, UniProt P08631)
How it was run: as §1

[13] = target: T5, PKCζ(h) (Homo sapiens, UniProt Q05513)
T5 construct: gene PRKCZ
How it was run: as §1

[14] = target: PIK3CA (Homo sapiens, UniProt P42336)
How it was run: as §1

[15] = target: T6, PKCβI(h) (Homo sapiens, UniProt P05771)
T6 construct: gene PRKCB; isoform beta I
How it was run: as §1

[16] = target: T7, PKCδ(h) (Homo sapiens, UniProt Q05655)
T7 construct: gene PRKCD
How it was run: as §1

[17] = target: CSK(h) (Homo sapiens, UniProt P41240)
How it was run: as §1

[18] = target: T8, TrkB(h) (Homo sapiens, UniProt Q16620)
T8 construct: gene NTRK2
How it was run: as §1

T4 sequence (P10721 whole entry V560G): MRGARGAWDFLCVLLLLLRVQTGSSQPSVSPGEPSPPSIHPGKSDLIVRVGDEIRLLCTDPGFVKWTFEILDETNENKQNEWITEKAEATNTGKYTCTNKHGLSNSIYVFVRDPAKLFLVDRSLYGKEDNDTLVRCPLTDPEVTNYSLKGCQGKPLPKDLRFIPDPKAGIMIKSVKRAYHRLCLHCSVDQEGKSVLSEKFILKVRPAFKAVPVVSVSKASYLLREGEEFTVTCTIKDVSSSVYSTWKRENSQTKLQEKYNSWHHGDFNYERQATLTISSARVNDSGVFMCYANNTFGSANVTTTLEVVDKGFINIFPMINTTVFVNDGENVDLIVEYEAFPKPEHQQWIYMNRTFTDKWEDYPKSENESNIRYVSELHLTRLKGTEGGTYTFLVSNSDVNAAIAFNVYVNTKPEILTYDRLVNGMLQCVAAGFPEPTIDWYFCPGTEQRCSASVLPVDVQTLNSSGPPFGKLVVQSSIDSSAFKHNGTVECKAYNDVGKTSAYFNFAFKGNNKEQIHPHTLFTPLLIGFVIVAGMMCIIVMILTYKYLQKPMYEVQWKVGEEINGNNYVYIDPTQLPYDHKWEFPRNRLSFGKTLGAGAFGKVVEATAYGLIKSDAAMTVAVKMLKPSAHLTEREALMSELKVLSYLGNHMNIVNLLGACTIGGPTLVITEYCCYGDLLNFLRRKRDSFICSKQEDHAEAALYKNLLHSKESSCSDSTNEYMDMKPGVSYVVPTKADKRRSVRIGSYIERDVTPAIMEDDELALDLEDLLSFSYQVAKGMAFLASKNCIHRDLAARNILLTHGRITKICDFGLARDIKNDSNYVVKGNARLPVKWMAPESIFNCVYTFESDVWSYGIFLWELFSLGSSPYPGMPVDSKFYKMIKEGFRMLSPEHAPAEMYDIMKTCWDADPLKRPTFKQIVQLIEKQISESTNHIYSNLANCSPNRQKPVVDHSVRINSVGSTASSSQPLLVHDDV
Chain of PIP4K2A (P48426 whole entry): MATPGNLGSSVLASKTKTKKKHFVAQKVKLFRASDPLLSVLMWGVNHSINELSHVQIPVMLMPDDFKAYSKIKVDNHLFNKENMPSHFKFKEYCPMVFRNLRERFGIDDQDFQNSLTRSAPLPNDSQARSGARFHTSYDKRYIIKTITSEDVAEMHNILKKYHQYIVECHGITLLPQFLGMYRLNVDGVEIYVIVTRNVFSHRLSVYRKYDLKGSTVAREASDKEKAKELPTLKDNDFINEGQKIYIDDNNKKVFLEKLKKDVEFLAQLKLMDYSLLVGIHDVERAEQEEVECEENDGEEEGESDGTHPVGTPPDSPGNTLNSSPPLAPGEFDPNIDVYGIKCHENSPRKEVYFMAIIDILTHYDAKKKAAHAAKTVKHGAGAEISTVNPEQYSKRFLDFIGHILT
Chain of PIK3CA (P42336 whole entry): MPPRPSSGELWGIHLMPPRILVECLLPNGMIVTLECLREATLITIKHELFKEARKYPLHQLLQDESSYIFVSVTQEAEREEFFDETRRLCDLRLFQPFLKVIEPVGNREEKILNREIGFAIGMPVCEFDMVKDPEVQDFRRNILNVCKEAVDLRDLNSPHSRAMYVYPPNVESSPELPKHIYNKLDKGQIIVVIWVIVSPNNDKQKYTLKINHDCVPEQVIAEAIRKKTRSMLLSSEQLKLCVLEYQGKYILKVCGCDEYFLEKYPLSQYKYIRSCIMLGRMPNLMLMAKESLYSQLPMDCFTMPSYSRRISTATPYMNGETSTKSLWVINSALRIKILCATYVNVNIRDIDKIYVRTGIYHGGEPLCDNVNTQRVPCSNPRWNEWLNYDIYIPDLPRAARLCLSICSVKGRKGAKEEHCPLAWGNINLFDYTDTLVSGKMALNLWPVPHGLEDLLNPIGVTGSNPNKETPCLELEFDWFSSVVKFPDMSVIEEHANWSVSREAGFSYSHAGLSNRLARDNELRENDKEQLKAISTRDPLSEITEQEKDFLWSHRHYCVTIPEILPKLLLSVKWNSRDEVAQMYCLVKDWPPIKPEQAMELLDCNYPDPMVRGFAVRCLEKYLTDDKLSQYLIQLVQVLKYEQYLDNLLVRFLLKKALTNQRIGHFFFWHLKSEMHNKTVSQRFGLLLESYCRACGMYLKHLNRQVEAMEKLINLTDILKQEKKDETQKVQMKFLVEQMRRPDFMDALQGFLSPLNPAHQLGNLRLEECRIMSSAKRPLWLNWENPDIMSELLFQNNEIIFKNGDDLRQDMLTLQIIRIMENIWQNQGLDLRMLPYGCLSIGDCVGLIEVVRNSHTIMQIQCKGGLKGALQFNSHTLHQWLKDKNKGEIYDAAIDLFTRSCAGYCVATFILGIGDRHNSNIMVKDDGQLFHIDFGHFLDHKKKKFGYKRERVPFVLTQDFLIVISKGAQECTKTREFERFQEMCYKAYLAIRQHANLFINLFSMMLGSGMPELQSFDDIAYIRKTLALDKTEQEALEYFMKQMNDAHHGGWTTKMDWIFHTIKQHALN
Chain of Hck(h) (P08631 whole entry): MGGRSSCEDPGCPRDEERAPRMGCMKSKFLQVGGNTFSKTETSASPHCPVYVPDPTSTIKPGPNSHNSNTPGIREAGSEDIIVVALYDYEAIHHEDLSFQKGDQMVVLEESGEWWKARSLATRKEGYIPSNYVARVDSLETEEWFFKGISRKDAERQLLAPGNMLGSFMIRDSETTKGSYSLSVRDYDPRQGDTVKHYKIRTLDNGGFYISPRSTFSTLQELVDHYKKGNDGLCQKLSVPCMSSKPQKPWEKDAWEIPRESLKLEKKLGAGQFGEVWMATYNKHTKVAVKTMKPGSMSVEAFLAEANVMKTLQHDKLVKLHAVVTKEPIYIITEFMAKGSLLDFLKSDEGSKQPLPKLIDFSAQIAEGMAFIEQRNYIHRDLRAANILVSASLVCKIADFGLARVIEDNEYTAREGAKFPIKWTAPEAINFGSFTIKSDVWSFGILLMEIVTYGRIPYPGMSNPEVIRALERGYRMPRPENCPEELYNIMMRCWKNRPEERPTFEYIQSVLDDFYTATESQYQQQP
Chain of Met(h) (P08581 whole entry): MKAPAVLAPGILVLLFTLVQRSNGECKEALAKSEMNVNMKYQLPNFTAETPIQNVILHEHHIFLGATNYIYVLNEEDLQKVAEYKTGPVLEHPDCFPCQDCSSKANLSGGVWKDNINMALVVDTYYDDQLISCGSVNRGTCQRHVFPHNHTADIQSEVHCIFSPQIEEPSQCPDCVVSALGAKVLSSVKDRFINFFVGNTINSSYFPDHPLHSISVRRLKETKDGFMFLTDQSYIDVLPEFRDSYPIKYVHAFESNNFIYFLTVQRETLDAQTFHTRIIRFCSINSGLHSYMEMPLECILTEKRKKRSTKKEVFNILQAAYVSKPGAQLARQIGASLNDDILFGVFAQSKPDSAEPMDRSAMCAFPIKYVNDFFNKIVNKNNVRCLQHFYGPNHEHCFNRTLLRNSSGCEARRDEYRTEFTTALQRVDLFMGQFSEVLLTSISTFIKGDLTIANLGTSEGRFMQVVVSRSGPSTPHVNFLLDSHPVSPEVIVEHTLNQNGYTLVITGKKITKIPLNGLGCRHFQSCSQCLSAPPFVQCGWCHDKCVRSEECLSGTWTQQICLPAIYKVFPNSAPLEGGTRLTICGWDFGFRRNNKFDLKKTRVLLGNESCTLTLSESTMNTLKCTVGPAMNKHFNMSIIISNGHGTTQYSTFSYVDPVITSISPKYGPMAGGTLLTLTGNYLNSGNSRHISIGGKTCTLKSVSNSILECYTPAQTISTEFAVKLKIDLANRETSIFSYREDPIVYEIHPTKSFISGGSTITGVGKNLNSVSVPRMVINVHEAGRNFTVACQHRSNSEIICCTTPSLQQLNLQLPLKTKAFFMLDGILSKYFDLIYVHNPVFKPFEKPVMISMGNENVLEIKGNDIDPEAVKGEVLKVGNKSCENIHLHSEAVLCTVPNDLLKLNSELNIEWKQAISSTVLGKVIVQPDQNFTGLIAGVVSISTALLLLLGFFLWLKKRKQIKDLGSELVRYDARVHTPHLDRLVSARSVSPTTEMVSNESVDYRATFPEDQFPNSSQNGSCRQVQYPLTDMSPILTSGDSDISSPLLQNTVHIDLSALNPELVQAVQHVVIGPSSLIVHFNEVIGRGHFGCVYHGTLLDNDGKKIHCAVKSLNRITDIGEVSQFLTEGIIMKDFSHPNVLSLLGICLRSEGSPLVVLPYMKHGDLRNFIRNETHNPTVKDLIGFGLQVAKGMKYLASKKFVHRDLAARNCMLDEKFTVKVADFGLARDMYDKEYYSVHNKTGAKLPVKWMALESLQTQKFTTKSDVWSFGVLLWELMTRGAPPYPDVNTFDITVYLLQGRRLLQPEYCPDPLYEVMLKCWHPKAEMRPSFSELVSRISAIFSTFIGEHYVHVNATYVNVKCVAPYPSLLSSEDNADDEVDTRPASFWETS

`CC[C@@H](N)CNc1ccnc(-c2cc(-c3cnn(C)c3)ccc2O)n1` [CRT0066101] showed an inhibition at 1 µM [1] of 10%, an inhibition at 1 µM [2] of -6% and an inhibition at 1 µM [3] of 14%. The inhibition at 1 µM [4] was 13%, the inhibition at 1 µM [5] was -2% and the inhibition at 1 µM [6] was 4%. It also gave an inhibition at 1 µM [7] of 39%, an inhibition at 1 µM [8] of 12% and an inhibition at 1 µM [9] of 23%. It also gave an inhibition at 1 µM [10] of -22%, an inhibition at 1 µM [11] of 24% and an inhibition at 1 µM [12] of 4%. For the same molecule, the inhibition at 1 µM [13] was -8%, the inhibition at 1 µM [14] was 1% and the inhibition at 1 µM [15] was 11%. For the same molecule, the inhibition at 1 µM [16] was 28%, the inhibition at 1 µM [17] was 7% and the inhibition at 1 µM [18] was 15%.

Reference: publication PMC5391474, “Investigation of the Role of Protein Kinase D in Human Rhinovirus Replication” (Journal of Virology, 2017)
